BigSolDB 2.1

CCOc1ccc2ccccc2c1C(=O)O
solubility (mole fraction)
Conditions | 278.15 K | 283.15 K | 288.15 K | 293.15 K | 298.15 K | 303.15 K | 308.15 K | 313.15 K | 318.15 K | 323.15 K
in acetone | 0.0535 | 0.0606 | 0.0691 | 0.0781 | 0.089 | 0.0994 | 0.112 | 0.127 | 0.142 | 0.159
in acetonitrile | 0.00615 | 0.00747 | 0.00921 | 0.011 | 0.0135 | 0.0165 | 0.022 | 0.0254 | 0.0308 | 0.0378
in ethanol | 0.0268 | 0.0325 | 0.0392 | 0.0469 | 0.0565 | 0.0688 | 0.0836 | 0.101 | 0.119 | 0.136
in ethyl acetate | 0.015 | 0.0174 | 0.0204 | 0.0239 | 0.0279 | 0.0331 | 0.038 | 0.0447 | 0.0526 | 0.0606
in isobutanol | 0.0111 | 0.0138 | 0.0172 | 0.0208 | 0.0256 | 0.0322 | 0.0396 | 0.0508 | 0.0623 | 0.0779
in isopropanol | 0.0148 | 0.0181 | 0.0228 | 0.0287 | 0.036 | 0.0459 | 0.058 | 0.0733 | 0.0901 | 0.112
in isopropyl acetate | 0.0118 | 0.0136 | 0.0155 | 0.0185 | 0.0213 | 0.0245 | 0.029 | 0.0333 | 0.0389 | 0.0454
in methanol | 0.0304 | 0.037 | 0.0443 | 0.0552 | 0.0671 | 0.0821 | 0.0951 | 0.114 | 0.134 | 0.151
in methyl acetate | 0.0153 | 0.0181 | 0.0215 | 0.0254 | 0.0301 | 0.0356 | 0.0417 | 0.0495 | 0.0587 | 0.0693
in n-pentanol | 0.0174 | 0.0205 | 0.0248 | 0.0296 | 0.0356 | 0.0431 | 0.052 | 0.0632 | 0.0744 | 0.0902
in n-propanol | 0.0212 | 0.0236 | 0.0283 | 0.0345 | 0.0424 | 0.0511 | 0.0632 | 0.0779 | 0.092 | 0.114
in n-propyl acetate | 0.0129 | 0.0149 | 0.0177 | 0.0204 | 0.024 | 0.028 | 0.0322 | 0.0381 | 0.0445 | 0.0516
